Measured values reported in the supplement of paper PMC8960247.
Counter-ions that a name gives are not always drawn. ± gives the standard error.

Assays:
[1] = system: 621-102 (TSC2-deficient); test: relative viability vs DMSO; higher = less cytotoxic; settings: serum: 10% FBS, 72 h
[2] = system: 621-103 (TSC2-rescued); test: as above; settings: serum: 10% FBS, 72 h
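Note: immortalized renal angiomyolipoma cells stably carrying empty vector or TSC2, dosed in 384-well plates in DMEM, viability normalized to vehicle-treated wells within each plate.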

Question: Which relative viability ([1]; 0.0001 µM) does the source give for `CCCN[C@H]1CCc2nc(N)sc2C1` [Pramipexole dihydrochloride monohydrate] here?
Answer: 91.3 ± 7.3%

Question: What about the relative viability ([1]; 0.001 µM) of the same molecule?
Answer: 84.5 ± 4.2%

Question: And the relative viability ([1]; 0.01 µM)?
Answer: 101 ± 2.4%

Question: What about the relative viability ([1]; 0.1 µM) of the same molecule?
Answer: 102 ± 1.4%

Question: And the relative viability ([1]; 1 µM)?
Answer: 91.4 ± 1.3%

Question: And the relative viability ([1]; 10 µM)?
Answer: 94.4 ± 1.9%

Question: And the relative viability ([2]; 0.0001 µM)?
Answer: 98.1 ± 4.4%

Question: What about the relative viability ([2]; 0.001 µM) of the same molecule?
Answer: 95.62 ± 0.72%

Question: What about the relative viability ([2]; 0.01 µM) of the same molecule?
Answer: 101 ± 2.9%

Question: What about the relative viability ([2]; 0.1 µM) of the same molecule?
Answer: 101 ± 1.8%

Question: What about the relative viability ([2]; 1 µM) of the same molecule?
Answer: 105 ± 2.4%

Question: What about the relative viability ([2]; 10 µM) of the same molecule?
Answer: 100.5 ± 0.52%

Question: `CCc1nc(N)nc(N)c1-c1ccc(Cl)cc1` [Pyrimethamine] was tested. Which relative viability ([1]; 0.0001 µM) did it give?
Answer: 99.7 ± 4.9%

Question: And the relative viability ([1]; 0.001 µM)?
Answer: 108.7 ± 0.4%

Question: And the relative viability ([1]; 0.01 µM)?
Answer: 95.6 ± 3.3%

Question: And the relative viability ([1]; 0.1 µM)?
Answer: 95.7 ± 2.5%

Question: And the relative viability ([1]; 1 µM)?
Answer: 100 ± 1.8%

Question: What about the relative viability ([1]; 10 µM) of the same molecule?
Answer: 93.14 ± 0.75%

Question: What about the relative viability ([2]; 0.0001 µM) of the same molecule?
Answer: 105 ± 2%

Question: And the relative viability ([2]; 0.001 µM)?
Answer: 105.5 ± 0.94%

Question: And the relative viability ([2]; 0.01 µM)?
Answer: 104 ± 3.5%

Question: And the relative viability ([2]; 0.1 µM)?
Answer: 101 ± 2%

Question: And the relative viability ([2]; 1 µM)?
Answer: 104.3 ± 0.2%

Question: What about the relative viability ([2]; 10 µM) of the same molecule?
Answer: 102 ± 4.4%

Question: With `O=c1c(O)c(-c2ccc(O)c(O)c2)oc2cc(O)cc(O)c12` [Quercetin (Sophoretin)] as the molecule, how does the relative viability ([1]; 0.0001 µM) read?
Answer: 64.8 ± 5.1%

Question: What about the relative viability ([1]; 0.001 µM) of the same molecule?
Answer: 65.4 ± 7.3%

Question: And the relative viability ([1]; 0.01 µM)?
Answer: 68.4 ± 9.3%

Question: What about the relative viability ([1]; 0.1 µM) of the same molecule?
Answer: 75 ± 10%

Question: And the relative viability ([1]; 1 µM)?
Answer: 78.2 ± 10%

Question: What about the relative viability ([1]; 10 µM) of the same molecule?
Answer: 73.3 ± 5%

Question: What about the relative viability ([2]; 0.0001 µM) of the same molecule?
Answer: 87 ± 2%

Question: What about the relative viability ([2]; 0.001 µM) of the same molecule?
Answer: 79.1 ± 1.4%

Question: And the relative viability ([2]; 0.01 µM)?
Answer: 88.6 ± 3.3%

Question: And the relative viability ([2]; 0.1 µM)?
Answer: 95.2 ± 6.2%

Question: And the relative viability ([2]; 1 µM)?
Answer: 89.4 ± 4.9%

Question: And the relative viability ([2]; 10 µM)?
Answer: 86.8 ± 1.1%

Question: `COc1cc(Nc2ncc(F)c(Nc3ccc4c(n3)NC(=O)C(C)(C)O4)n2)cc(OC)c1OC` [R406 (free base)] was tested. Which relative viability ([1]; 0.0001 µM) did it give?
Answer: 114.2 ± 0.84%

Question: And the relative viability ([1]; 0.001 µM)?
Answer: 110 ± 2.3%

Question: And the relative viability ([1]; 0.01 µM)?
Answer: 105 ± 1.1%

Question: And the relative viability ([1]; 0.1 µM)?
Answer: 105 ± 1.2%

Question: And the relative viability ([1]; 1 µM)?
Answer: 105.4 ± 0.42%

Question: And the relative viability ([1]; 10 µM)?
Answer: 101 ± 2.1%

Question: What about the relative viability ([2]; 0.0001 µM) of the same molecule?
Answer: 99.45 ± 0.77%

Question: What about the relative viability ([2]; 0.001 µM) of the same molecule?
Answer: 98.41 ± 0.3%

Question: And the relative viability ([2]; 0.01 µM)?
Answer: 101.7 ± 0.23%

Question: What about the relative viability ([2]; 0.1 µM) of the same molecule?
Answer: 99.5 ± 1.3%

Question: And the relative viability ([2]; 1 µM)?
Answer: 98.1 ± 0.7%

Question: What about the relative viability ([2]; 10 µM) of the same molecule?
Answer: 70.26 ± 0.23%

Question: What does the source list for `COc1cc(Nc2ncc(F)c(Nc3ccc4c(n3)NC(=O)C(C)(C)O4)n2)cc(OC)c1OC` [R406]?
Answer: relative viability ([1]; 0.0001 µM): 117 ± 2%; relative viability ([1]; 0.001 µM): 110 ± 2.2%; relative viability ([1]; 0.01 µM): 111 ± 1.2%; relative viability ([1]; 0.1 µM): 109 ± 0.81%; relative viability ([1]; 1 µM): 100.2 ± 0.76%; relative viability ([1]; 10 µM): 117.2 ± 1.1%; relative viability ([2]; 0.0001 µM): 101 ± 1.9%; relative viability ([2]; 0.001 µM): 100 ± 1.5%; relative viability ([2]; 0.01 µM): 98.7 ± 1.4%; relative viability ([2]; 0.1 µM): 99.27 ± 0.46%; relative viability ([2]; 1 µM): 99.6 ± 1.3%; relative viability ([2]; 10 µM): 89.7 ± 2.5%

Question: For `CC(=O)SCC(Cc1ccccc1)C(=O)NCC(=O)OCc1ccccc1` (configuration not stated) [Racecadotril], which relative viability ([1]; 0.0001 µM) is on record?
Answer: 134 ± 1.7%

Question: What about the relative viability ([1]; 0.001 µM) of the same molecule?
Answer: 120 ± 3.8%

Question: What about the relative viability ([1]; 0.01 µM) of the same molecule?
Answer: 122 ± 1.8%

Question: What about the relative viability ([1]; 0.1 µM) of the same molecule?
Answer: 107 ± 3.7%

Question: And the relative viability ([1]; 1 µM)?
Answer: 114 ± 5.8%

Question: And the relative viability ([1]; 10 µM)?
Answer: 113 ± 1.3%

Question: And the relative viability ([2]; 0.0001 µM)?
Answer: 104 ± 4.4%

Question: And the relative viability ([2]; 0.001 µM)?
Answer: 95.5 ± 2%

Question: What about the relative viability ([2]; 0.01 µM) of the same molecule?
Answer: 101 ± 4.2%

Question: And the relative viability ([2]; 0.1 µM)?
Answer: 101 ± 3.7%

Question: What about the relative viability ([2]; 1 µM) of the same molecule?
Answer: 106 ± 1.2%

Question: What about the relative viability ([2]; 10 µM) of the same molecule?
Answer: 99.3 ± 2.2%
